From patent US20250188194A1, “Method of treatment” (Nucleus Therapeutics Pty Ltd, priority 2021, published 2025)
“Also recorded” adds a separate entry of the source.

Test system: differentiated PLB-985 cells
Assay: Quantifying DNA released (adherent NET-DNA) after PMA stimulation by spectrophotometry
Type: cell-based, human
Conditions: 1, 10 or 50 μM GSK484 one hour prior to PMA; N=2
Description: The results of the DAPI and SYTOX™ Green staining studies in FIG. 2C, 2D are consistent with DX1-mediated inhibition of chromatin decondensation and DNA release by differentiated PLB-985 cells. To further probe this effect, DNA-protein release was measured by differentiated PLB-985 cells after PMA stimulation by resuspending and quantifying DNA-protein complexes adherent to wells by spectrophotometry using a previously described protocol for isolation and quantification of NET-DNA in cell culture. This assay is based on the concept that intact cells for the most part remain in suspension, while DNA-protein complexes released in NETs are at least partially adhered to wells. This distinction allows for separation of intact cells from adherent NET-DNA by aspiration of the cell culture supernatants, followed by resuspension of adherent DNA-protein complexes and quantification by spectrophotometry.
Next, the ability of this assay to detect the effect of a known NETosis inhibitor on DNA release by differentiated PLB-985 cells stimulated by PMA was verified. […] Differentiated PLB-985 cells were treated with 0-50 μM of GSK484 for one hour prior to stimulation with PMA, followed by quantification of adherent DNA by spectrophotometry. […]

## COc1cc(C(=O)N2CC[C@@H](O)[C@@H](N)C2)cc2nc(-c3cc4ccccc4n3CC3CC3)n(C)c12 [GSK484]
  DNA release in response to PMA (adherent DNA by spectrophotometry): reduced extracellular DNA in a dose-dependent manner; also recorded: dose-dependent inhibition of DNA release
